The source of these data is US8969589B2, “Compounds acting at multiple prostaglandin receptors giving a general anti-inflammatory response” (Allergan, Inc., priority 2011, dated 2015).

What all share (assay type): cell-based
In experiment [1] the target is T1, human prostanoid DP1 receptor (Homo sapiens, UniProt Q13258).
T1 construct: expressed in transfected cells
T1 sequence (Q13258 1-359): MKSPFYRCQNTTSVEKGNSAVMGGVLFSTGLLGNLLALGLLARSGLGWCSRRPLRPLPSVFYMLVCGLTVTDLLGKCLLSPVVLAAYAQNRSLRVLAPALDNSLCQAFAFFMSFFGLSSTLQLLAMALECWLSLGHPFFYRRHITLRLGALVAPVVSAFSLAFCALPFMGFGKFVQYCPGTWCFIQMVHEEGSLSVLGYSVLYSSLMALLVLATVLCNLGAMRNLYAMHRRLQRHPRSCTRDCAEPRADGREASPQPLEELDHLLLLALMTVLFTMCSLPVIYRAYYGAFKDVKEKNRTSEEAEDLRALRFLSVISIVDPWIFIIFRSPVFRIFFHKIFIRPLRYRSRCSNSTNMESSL
In words: FLIPR Ca2+ signaling PG antagonist assay, DP1 stable cell line. The conditions noted are these: antagonist Kb vs standard agonist BW 245C; HEK-293 EBNA cells with chimeric Gqs. As to the method: (§1) The above compounds were tested for PG antagonist activity as follows using human recombinant prostanoid receptor (DP1, EP1-4, FP, IP and TP) stable cell lines:
(§2) In order to measure the response of Gs and Gi coupled prostanoid receptors as a Ca^2+ signal, chimeric G protein cDNAs were used. Stable cell lines over-expressing human prostanoid DP1, EP1-4, FP, IP, and TP receptors were established as follows:
(§3) Briefly, human prostanoid DP1, EP2, and EP4 receptor cDNAs were co-transfected with chimeric Gqs cDNA containing a haemagglutanin (HA) epitope; human prostanoid EP3 receptors were co-transfected with chimeric Gqi-HA; human EP1, FP, IP, and TP receptor cDNAs were expressed with no exogenous G-proteins. Gqs and Gqi chimeric cDNAs (Molecular Devices, Sunnyvale, Calif., U.S.A.), as well as cDNAs of prostanoid receptors, were cloned into a pCEP4 vector with a hygromycin B selection marker. Transfection into HEK-293 EBNA (Epstein-Barr virus nuclear antigen) cells was achieved by the FuGENE 6 transfection Reagent (Roche Applied Science, Indianapolis, Ind., USA). Stable transfectants were selected according to hygromycin resistance. Because Gqs and Gqi contained an HA epitope, G-protein expression was detected by Western blotting analysis using anti-mouse HA monoclonal antibody and horseradish peroxidase (HRP)-conjugated secondary antibody, while functional expression of prostanoid receptors was detected by FLIPR screening (Matias et al., 2004). These stable cell lines were validated using previously published antagonists at 10 μM against serial dilutions of standard agonists by FLIPR functional assays for Ca^2− Signaling (as described below).
(§4) Ca^2+ signaling studies were performed using a FLIPR TETRA system (Molecular Devices, Sunnyvale, Calif., USA) in the 384-format. This is a high-throughput instrument for cell-based assays to monitor Ca^2+ signaling associated with GPCRs and ion channels. Cells were seeded at a density of 5×10^4 cells/well in BioCoat poly-D-lysine coated, black wall, clear bottom 384-well plates (BD Biosciences, Franklin lakes, N.J., USA) and allowed to attach overnight in an incubator at 37° C. The cells were then washed twice with HBSS-HEPES buffer (Hanks' balanced salt solution without bicarbonate and phenol red, 20 mM HEPES, pH 7.4) using an ELx405 Select CW Microplate Washer (BioTek, Winooski, Vt., USA). […] Cells were excited with LED (light emitting diode) excitation at 470-495 nm and emission was measured through an emission filter at 515-575 nm. Assay plates were read for 3.5 minutes using the FLIPR^TETRA. The peak increase in fluorescence intensity was recorded for each well. […]

Experiment [2] deals with T2, human prostanoid FP receptor (Homo sapiens, UniProt P43088).
T2 construct: expressed in transfected cells
As to the kind of experiment: FLIPR Ca2+ signaling PG antagonist assay, FP stable cell line. The conditions noted are these: antagonist Kb vs standard agonist 17-phenyl-PGF2α; HEK-293 EBNA cells. As to the method:
as §1, §2, §3, §4

In experiment [3] the target is T3, human prostanoid EP2 receptor (Homo sapiens, UniProt P43116).
T3 construct: expressed in transfected cells
As to the kind of experiment: FLIPR Ca2+ signaling PG antagonist assay, EP2 stable cell line. As to conditions: antagonist Kb vs standard agonist PGE2; HEK-293 EBNA cells with chimeric Gqs. The protocol: as §1, §2, §3, §4

In experiment [4] the target is T4, human prostanoid IP receptor (Homo sapiens, UniProt P43119).
T4 construct: expressed in transfected cells
In words: FLIPR Ca2+ signaling PG antagonist assay, IP stable cell line. As to conditions: antagonist Kb vs standard agonist Cicaprost; HEK-293 EBNA cells. As to the method: as §1, §2, §3, §4

Experiment [5] has as its target T5, human prostanoid EP1 receptor (Homo sapiens, UniProt P34995).
T5 construct: expressed in transfected cells
T5 sequence (P34995 1-402): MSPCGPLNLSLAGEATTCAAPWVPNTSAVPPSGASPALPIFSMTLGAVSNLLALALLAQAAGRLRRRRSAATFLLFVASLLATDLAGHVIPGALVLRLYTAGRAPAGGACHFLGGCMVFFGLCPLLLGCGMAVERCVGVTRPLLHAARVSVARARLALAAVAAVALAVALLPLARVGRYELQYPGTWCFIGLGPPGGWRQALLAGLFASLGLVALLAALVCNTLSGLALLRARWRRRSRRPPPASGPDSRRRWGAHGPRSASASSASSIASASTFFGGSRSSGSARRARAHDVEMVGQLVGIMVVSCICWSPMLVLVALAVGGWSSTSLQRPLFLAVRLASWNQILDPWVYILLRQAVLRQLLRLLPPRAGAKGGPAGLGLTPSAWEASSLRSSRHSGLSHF
In words: FLIPR Ca2+ signaling PG antagonist assay, EP1 stable cell line. As to conditions: antagonist Kb vs standard agonist PGE2; HEK-293 EBNA cells. As to the method:
as §1, §2, §3, §4

The target of experiment [6] is T6, human prostanoid EP4 receptor (Homo sapiens, UniProt P35408).
T6 construct: expressed in transfected cells
As to the kind of experiment: FLIPR Ca2+ signaling PG antagonist assay, EP4 stable cell line. As to conditions: antagonist Kb vs standard agonist PGE2; HEK-293 EBNA cells with chimeric Gqs. As to the method:
as §1, §2, §3, §4

Experiment [7] addresses T7, human prostanoid TP receptor (Homo sapiens, UniProt P21731).
T7 construct: expressed in transfected cells
T7 sequence (P21731 1-343): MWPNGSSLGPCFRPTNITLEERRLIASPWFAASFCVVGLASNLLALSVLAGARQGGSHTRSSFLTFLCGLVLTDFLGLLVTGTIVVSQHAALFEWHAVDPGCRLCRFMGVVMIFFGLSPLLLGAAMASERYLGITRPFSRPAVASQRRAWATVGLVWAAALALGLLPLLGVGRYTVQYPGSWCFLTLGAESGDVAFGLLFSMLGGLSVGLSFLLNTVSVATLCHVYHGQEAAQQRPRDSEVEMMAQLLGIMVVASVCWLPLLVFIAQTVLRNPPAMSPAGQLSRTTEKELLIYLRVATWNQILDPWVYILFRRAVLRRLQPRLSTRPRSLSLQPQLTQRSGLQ
In words: FLIPR Ca2+ signaling PG antagonist assay, TP stable cell line. As to conditions: antagonist Kb vs standard agonist U-46619; HEK-293 EBNA cells. The protocol:
as §1, §2, §3, §4

The target in experiment [8] is T8, human prostanoid EP3 receptor (Homo sapiens, UniProt P43115).
T8 construct: expressed in transfected cells
T8 sequence (P43115 1-390): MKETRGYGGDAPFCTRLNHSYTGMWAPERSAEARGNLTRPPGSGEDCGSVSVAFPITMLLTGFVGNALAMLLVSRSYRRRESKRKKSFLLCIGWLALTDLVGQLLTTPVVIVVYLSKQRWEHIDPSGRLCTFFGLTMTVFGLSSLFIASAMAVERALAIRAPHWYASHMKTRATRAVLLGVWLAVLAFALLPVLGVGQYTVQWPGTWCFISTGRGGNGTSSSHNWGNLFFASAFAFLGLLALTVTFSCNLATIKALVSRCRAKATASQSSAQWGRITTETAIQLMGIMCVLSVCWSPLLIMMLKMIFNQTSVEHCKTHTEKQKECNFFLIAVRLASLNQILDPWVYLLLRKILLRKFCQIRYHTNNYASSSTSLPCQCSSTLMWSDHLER
In words: FLIPR Ca2+ signaling PG antagonist assay, EP3 stable cell line. As to conditions: antagonist Kb vs standard agonist PGE2; HEK-293 EBNA cells with chimeric Gqi. The protocol: as §1, §2, §3, §4

In general, Kb refers to the affinity of an antagonist, worked out from how it opposes an agonist.

T4 sequence (P43119 whole entry): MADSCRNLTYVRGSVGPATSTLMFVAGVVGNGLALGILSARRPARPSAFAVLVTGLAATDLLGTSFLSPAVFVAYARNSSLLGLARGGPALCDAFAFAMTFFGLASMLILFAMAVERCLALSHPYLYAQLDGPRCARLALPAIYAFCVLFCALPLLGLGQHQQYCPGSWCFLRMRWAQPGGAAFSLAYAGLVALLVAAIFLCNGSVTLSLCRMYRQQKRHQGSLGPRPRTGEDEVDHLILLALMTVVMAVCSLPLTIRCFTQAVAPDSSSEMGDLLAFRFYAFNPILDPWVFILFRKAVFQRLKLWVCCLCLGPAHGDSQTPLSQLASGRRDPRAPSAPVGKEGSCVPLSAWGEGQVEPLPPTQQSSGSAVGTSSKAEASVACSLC
T6 sequence (P35408 whole entry): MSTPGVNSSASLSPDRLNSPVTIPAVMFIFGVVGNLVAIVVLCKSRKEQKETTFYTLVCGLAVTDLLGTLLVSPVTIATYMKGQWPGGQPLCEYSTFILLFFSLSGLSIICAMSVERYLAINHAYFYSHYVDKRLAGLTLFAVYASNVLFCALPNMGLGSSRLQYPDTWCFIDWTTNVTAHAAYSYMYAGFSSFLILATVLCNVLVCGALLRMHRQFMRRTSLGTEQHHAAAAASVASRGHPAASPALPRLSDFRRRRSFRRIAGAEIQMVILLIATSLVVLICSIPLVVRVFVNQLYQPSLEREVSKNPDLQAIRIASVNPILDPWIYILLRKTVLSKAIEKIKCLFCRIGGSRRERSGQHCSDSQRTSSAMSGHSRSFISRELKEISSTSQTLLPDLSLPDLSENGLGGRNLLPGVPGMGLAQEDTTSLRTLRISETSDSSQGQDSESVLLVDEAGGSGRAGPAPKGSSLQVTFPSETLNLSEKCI
T2 sequence (P43088 whole entry): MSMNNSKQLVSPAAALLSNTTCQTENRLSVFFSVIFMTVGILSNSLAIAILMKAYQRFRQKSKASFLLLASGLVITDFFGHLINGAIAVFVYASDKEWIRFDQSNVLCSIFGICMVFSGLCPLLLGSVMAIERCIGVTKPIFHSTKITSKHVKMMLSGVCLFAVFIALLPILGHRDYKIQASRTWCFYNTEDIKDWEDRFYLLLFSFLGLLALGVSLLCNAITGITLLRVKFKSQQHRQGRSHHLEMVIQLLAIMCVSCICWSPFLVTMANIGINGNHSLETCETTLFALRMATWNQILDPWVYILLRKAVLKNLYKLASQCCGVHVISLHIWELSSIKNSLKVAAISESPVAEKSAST
T3 sequence (P43116 whole entry): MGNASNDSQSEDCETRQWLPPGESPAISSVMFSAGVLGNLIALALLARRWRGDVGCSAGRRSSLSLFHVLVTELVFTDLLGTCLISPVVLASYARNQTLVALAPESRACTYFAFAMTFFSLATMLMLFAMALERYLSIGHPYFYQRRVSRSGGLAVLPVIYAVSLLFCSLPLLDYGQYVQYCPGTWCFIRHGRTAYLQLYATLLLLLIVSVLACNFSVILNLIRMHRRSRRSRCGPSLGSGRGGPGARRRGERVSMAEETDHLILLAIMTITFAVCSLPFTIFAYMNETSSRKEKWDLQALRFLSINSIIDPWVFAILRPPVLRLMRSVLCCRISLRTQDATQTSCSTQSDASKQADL

With `Cc1cc(OCC(=O)O)nn1Cc1cc(Cl)ccc1OCC(C)C` [Example 4, [1-(5-chloro-2-isobutoxy-benzyl)-5-methyl-1H-pyrazol-3-yloxy]-acetic acid], the “DP1 (Kb)” value in experiment [1] was “PAg”. The Kb in experiment [2] was 1700 nM; in experiment [3] it was ≥ 10000 nM; in experiment [4], ≥ 10000 nM; in experiment [5], 110 nM; in experiment [6] it was ≥ 10000 nM; in experiment [7], 15 nM. Moreover, the Kb in experiment [8] is ≥ 10000 nM.

Regarding `CCC(CC)COc1ccc(Br)cc1Cn1nc(OCC(=O)O)cc1C` [Example 1, {1-[5-bromo-2-(2-ethyl-butoxy)-benzyl]-5-methyl-1H-pyrazol-3-yl}-oxaacetic acid], the Kb in experiment [1] was 640 nM; in experiment [2], 250 nM; in experiment [3], ≥ 10000 nM; in experiment [4] it was 220 nM; in experiment [5] it was 40 nM; in experiment [6], 130 nM. The figures for the Kb in experiment [7] and in experiment [8] were 2 nM and ≥ 10000 nM, respectively.

On to `Cc1cc(OCC(=O)O)nn1Cc1cc(Cl)ccc1OCc1ccc(Cl)cc1` [Example 3, {1-[5-chloro-2-(4-chloro-benzyloxy)-benzyl]-5-methyl-1H-pyrazol-3-yloxy}-acetic acid], for which the Kb in experiment [1] was 1000 nM; in experiment [2] it was 220 nM; in experiment [3], 340 nM; in experiment [4] it was 500 nM; in experiment [5], 9 nM; in experiment [6] it was ≥ 10000 nM. For the same compound, the Kb in experiment [7] worked out at 1 nM; in experiment [8], 3700 nM.

Take `CCC(CC)COc1ccc(Cl)cc1Cn1nc(OCC(=O)O)cc1C` [Example 2, {1-[5-chloro-2-(2-ethyl-butoxy)-benzyl]-5-methyl-1H-pyrazol-3-yloxy}-acetic acid]: the antagonist dissociation constant (Kb) was 500 nM in experiment [1]; 980 nM in experiment [2]; ≥ 10000 nM in experiment [3]; 600 nM in experiment [4]; 75 nM in experiment [5]; 350 nM in experiment [6]. In addition, in experiment [8], the Kb was ≥ 10000 nM. In addition, in experiment [7], the “TP (Kb)” value is “PAg”.
